{
  "source": "patent US8187882B2",
  "about": "“Multiple shoot proliferation and regeneration system for plants” (Monsanto Technology LLC, priority 2001, dated 2012)",
  "key": {"[1]": {"tested_on": "DP50 cotton zygotic embryo explants", "assay": "Relative activity of different formulations of dikegulac on DP50 cotton zygotic embryo explants", "assay_type": "cell-based", "conditions": "cv DP50", "method": "Any common plant tissue culture media can be used, including, but not limited to, modified LP medium, DKW medium, GD1 medium, MS/B5 medium, or WPM medium. Embryo axes should be placed apical end up and basal end into the medium so that the radicle is beneath the medium surface. The explants are cultured axenically at approximately 25-28° C. under fluorescent lighting at about 10-50 μE PAR for a 16-hour photoperiod. Typically it takes 5-10 weeks for multiple shoots in cotton to develop to a useful size. Table 4 is a comparison of many different formulations of dikegulac."}, "[2]": {"tested_on": "cotton explants", "assay": "Early experiments with dikegulac sodium salt in the culture medium for cotton", "assay_type": "cell-based", "conditions": "1000 mg/L incorporated into the culture medium", "method": "Forms of dikegulac: Dikegulac comes in several forms, for example a sodium salt, Atrimmec™, and free add. Early experiments were done using 1000 mg/L of the sodium salt incorporated into the culture medium for cotton. […] Later tests reduced this to 500 mg/L for ease of shoot development. Sodium dikegulac (500 mg/L) was tested in all combinations with BAP (0, 1, and 5 mg/L) and IAA (0, 1, and 5 mg/L). For US upland cotton varieties, 500 mg/L dikegulac, 1 mg/L IAA and 1 mg/L BA is a particularly useful combination. Zeatin riboside (ZR) can be substituted for BA with good results. The cytokinin component can also be omitted with good results."}, "[3]": {"tested_on": "cotton embryos", "assay": "Multiple shoot formation from cotton embryos cultured on varying levels of dikegulac with 1 mg/L IAA and 1 mg/L BAP", "assay_type": "cell-based", "method": "Tissue culture: Embryo explants are cultured in media in a suitable culture vessel containing 500 mg/L sodium dikegulac (2,3:4,6-diisopropylidene-2-keto-1-gulonic acid), 1 mg/L IAA (indole-3-acetic acid), and 1 mg/L BA (N-6-benzyladenine) (herein after referred to as DIB media). Any common plant tissue culture media can be used, including, but not limited to, modified LP medium, DKW medium, GD1 medium, MS/B5 medium, or WPM medium. Embryo axes should be placed apical end up and basal end into the medium so that the radicle is beneath the medium surface. The explants are cultured axenically at approximately 25-28° C. under fluorescent lighting at about 10-50 μE PAR for a 16-hour photoperiod. Typically it takes 5-10 weeks for multiple shoots in cotton to develop to a useful size. Experiments were done to determine if the form of the dikegulac is important and to determine a minimum optimum level of dikegulac needed for multiple shoot formation. […] What is not captured in the numerical data in Table 3 is the overall phenotypic response of the cultures. The explants cultured on the MS/B5 medium contained a lot of callus tissue at the base and the cultures were yellowing. The cultures on GD1 contained only a minimal amount of callus but the yellowing of the regenerating tissues was present."}, "[4]": {"tested_on": "cotton plants", "assay": "Morphology and fertility of cotton plants grown from elongated, rooted shoots produced with dikegulac", "assay_type": "in vivo", "from_the_text": "Elongation and rooting After multiple shoots are produced, individual shoots, epicotyls, or entire shoot clump developed on the explant are excised and subcultured on the basal medium used above (without the growth regulators, or with exogenous auxin) under the same temperature and light conditions. Table 4 is a comparison of many different formulations of dikegulac."}, "[5]": {"conditions": "Study 1, 500 mg/L, liquid DIB medium"}, "[6]": {"conditions": "Study 1, 500 mg/L, solid DIB medium"}, "[7]": {"conditions": "Study 2, 500 mg/L, solid DIB medium"}, "[8]": {"conditions": "MS/B5 medium, dikegulac 500 mg/L"}, "[9]": {"conditions": "MS/B5 medium, dikegulac 200 mg/L"}, "[10]": {"conditions": "MS/B5 medium, dikegulac 300 mg/L"}},
  "note": "Structures can show the parent of a compound that is named as a salt.",
  "data": [
    {"smiles": "CC1(C)OC[C@@H]2O[C@@]3(C(=O)[O-])OC(C)(C)O[C@H]3[C@@H]2O1.[Na+]", "note": "[RJK-D]", "values": [
      {"measurement": "Extra buds per viable explant", "setting": "[1]; [5]", "result": 3.3},
      {"measurement": "No. non-viable Explants", "setting": "[1]; [5]", "result": 11},
      {"measurement": "Percent Responding", "setting": "[1]; [5]", "result": 82, "unit": "%"}
    ]},
    {"smiles": "CC1(C)OC[C@@H]2O[C@@]3(C(=O)[O-])OC(C)(C)O[C@H]3[C@@H]2O1.[Na+]", "note": "[D4043]", "values": [
      {"measurement": "Extra buds per viable explant", "setting": "[1]; [5]", "result": 3.9},
      {"measurement": "No. non-viable Explants", "setting": "[1]; [5]", "result": 16},
      {"measurement": "Percent Responding", "setting": "[1]; [5]", "result": 84, "unit": "%"},
      {"measurement": "Extra buds per viable explant", "setting": "[1]; [6]", "result": 3.4},
      {"measurement": "No. non-viable Explants", "setting": "[1]; [6]", "result": 5},
      {"measurement": "Percent Responding", "setting": "[1]; [6]", "result": 92, "unit": "%"},
      {"measurement": "Extra buds per viable explant", "setting": "[1]; [7]", "result": 4.1},
      {"measurement": "No. non-viable Explants", "setting": "[1]; [7]", "result": 8},
      {"measurement": "Percent Responding", "setting": "[1]; [7]", "result": 83, "unit": "%"}
    ]},
    {"smiles": "CC1(C)OC[C@@H]2O[C@@]3(C(=O)O)OC(C)(C)O[C@H]3[C@@H]2O1", "note": "[dikegulac (sodium salt), 2,3:4,6-diisopropylidene-2-keto-1-gulonic acid]", "values": [
      {"measurement": "Response of cotton explants", "setting": "[2]", "result": "swelling, enlarged meristems, and adventitious-like leaf primordia, but the explants did not easily grow out"},
      {"measurement": "# Responding, multiple shoots", "setting": "[3]; GD1 medium, dikegulac 500 mg/L", "result": "35/50"},
      {"measurement": "# Responding, multiple shoots", "setting": "[3]; [8]", "result": "39/50"},
      {"measurement": "Fertility of plants developed from elongated, rooted shoots", "setting": "[4]", "result": 100, "unit": "%"},
      {"measurement": "Morphology of plants developed from elongated, rooted shoots", "setting": "[4]", "result": "morphologically normal"}
    ]},
    {"smiles": "CC1(C)OC[C@@H]2O[C@@]3(C(=O)O)OC(C)(C)O[C@H]3[C@@H]2O1", "note": "[dikegulac (acid form), 2,3:4,6-di-o-isopropylidene-2-keto-L-gulonic add]", "values": [
      {"measurement": "# Responding, single shoots", "setting": "[3]; GD1 medium, dikegulac 100 mg/L", "result": "39/50"},
      {"measurement": "# Responding, multiple shoots", "setting": "[3]; GD1 medium, dikegulac 200 mg/L", "result": "21/50"},
      {"measurement": "# Responding, single shoots", "setting": "[3]; GD1 medium, dikegulac 200 mg/L", "result": "22/50"},
      {"measurement": "# Responding, multiple shoots", "setting": "[3]; GD1 medium, dikegulac 300 mg/L", "result": "33/50"},
      {"measurement": "# Responding, single shoots", "setting": "[3]; GD1 medium, dikegulac 300 mg/L", "result": "10/50"},
      {"measurement": "# Responding, multiple shoots", "setting": "[3]; GD1 medium, dikegulac 400 mg/L", "result": "37/50"},
      {"measurement": "# Responding, multiple shoots", "setting": "[3]; GD1 medium, dikegulac 500 mg/L", "result": "40/50"},
      {"measurement": "# Responding, single shoots", "setting": "[3]; MS/B5 medium, dikegulac 100 mg/L", "result": "36/50"},
      {"measurement": "# Responding, multiple shoots", "setting": "[3]; [9]", "result": "38/50"},
      {"measurement": "# Responding, single shoots", "setting": "[3]; [9]", "result": "9/50"},
      {"measurement": "# Responding, multiple shoots", "setting": "[3]; [10]", "result": "41/50"},
      {"measurement": "# Responding, single shoots", "setting": "[3]; [10]", "result": "3/50"},
      {"measurement": "# Responding, multiple shoots", "setting": "[3]; MS/B5 medium, dikegulac 400 mg/L", "result": "40/50"},
      {"measurement": "# Responding, multiple shoots", "setting": "[3]; [8]", "result": "38/50"},
      {"measurement": "Extra buds per viable explant", "setting": "[1]; [5]", "result": 3.4},
      {"measurement": "No. non-viable Explants", "setting": "[1]; [5]", "result": 16},
      {"measurement": "Percent Responding", "setting": "[1]; [5]", "result": 67, "unit": "%"},
      {"measurement": "Extra buds per viable explant", "setting": "[1]; [6]", "result": 3.8},
      {"measurement": "No. non-viable Explants", "setting": "[1]; [6]", "result": 8},
      {"measurement": "Percent Responding", "setting": "[1]; [6]", "result": 87, "unit": "%"},
      {"measurement": "Extra buds per viable explant", "setting": "[1]; [7]", "result": 4.2},
      {"measurement": "No. non-viable Explants", "setting": "[1]; [7]", "result": 1},
      {"measurement": "Percent Responding", "setting": "[1]; [7]", "result": 96, "unit": "%"},
      {"measurement": "Fertility of plants developed from elongated, rooted shoots", "setting": "[4]", "result": 100, "unit": "%"},
      {"measurement": "Morphology of plants developed from elongated, rooted shoots", "setting": "[4]", "result": "morphologically normal"}
    ]},
    {"smiles": "CC1(C)OC[C@@H]2O[C@@]3(C(=O)[O-])OC(C)(C)O[C@H]3[C@@H]2O1.[Na+]", "note": "[Q2161]", "values": [
      {"measurement": "Extra buds per viable explant", "setting": "[1]; [5]", "result": 3.5},
      {"measurement": "No. non-viable Explants", "setting": "[1]; [5]", "result": 20},
      {"measurement": "Percent Responding", "setting": "[1]; [5]", "result": 64, "unit": "%"},
      {"measurement": "Extra buds per viable explant", "setting": "[1]; [6]", "result": 2.9},
      {"measurement": "No. non-viable Explants", "setting": "[1]; [6]", "result": 9},
      {"measurement": "Percent Responding", "setting": "[1]; [6]", "result": 85, "unit": "%"}
    ]},
    {"smiles": "CC1(C)OC[C@@H]2O[C@@]3(C(=O)[O-])OC(C)(C)O[C@H]3[C@@H]2O1.[Na+]", "note": "[RJK-H]", "values": [
      {"measurement": "Extra buds per viable explant", "setting": "[1]; [6]", "result": 3.7},
      {"measurement": "No. non-viable Explants", "setting": "[1]; [6]", "result": 9},
      {"measurement": "Percent Responding", "setting": "[1]; [6]", "result": 85, "unit": "%"},
      {"measurement": "Extra buds per viable explant", "setting": "[1]; Study 3, 400", "result": 1.9},
      {"measurement": "No. non-viable Explants", "setting": "[1]; Study 3, 400", "result": 20},
      {"measurement": "Percent Responding", "setting": "[1]; Study 3, 400", "result": 75, "unit": "%"},
      {"measurement": "Extra buds per viable explant", "setting": "[1]; Study 3, 500", "result": 3.0},
      {"measurement": "No. non-viable Explants", "setting": "[1]; Study 3, 500", "result": 17},
      {"measurement": "Percent Responding", "setting": "[1]; Study 3, 500", "result": 79, "unit": "%"},
      {"measurement": "Extra buds per viable explant", "setting": "[1]; Study 3, 600", "result": 3.4},
      {"measurement": "No. non-viable Explants", "setting": "[1]; Study 3, 600", "result": 24},
      {"measurement": "Percent Responding", "setting": "[1]; Study 3, 600", "result": 70, "unit": "%"},
      {"measurement": "Extra buds per viable explant", "setting": "[1]; Study 3, 700", "result": 3.1},
      {"measurement": "No. non-viable Explants", "setting": "[1]; Study 3, 700", "result": 33},
      {"measurement": "Percent Responding", "setting": "[1]; Study 3, 700", "result": 59, "unit": "%"}
    ]}
  ]
}
